Data taken from patent US20230312561A1, “SOLID FORMS OF (Z)-METHYL 3-(((4-(N-METHYL-2-(4-METHYLPIPERAZIN-1-YL)ACETAMIDO)PHENYL)AMINO)(PHENYL)METHYLENE)-2-OXO-2,3-DIHYDRO-1H-PYRROLO[2,3-B]PYRIDINE-6-CARBOXYLATE AND SALTS THEREOF” (Angion Biomedica Corp., priority 2020, published 2023).

Legend:
Assay type in all cases: physicochemical
[1] = Drying studies of Compound 1 Hydrochloride (XRPD, TGA)
Experimental: Compound 1 Hydrochloride Form A was then subjected to drying under various conditions.
Drying studies of Compound 1 Hydrochloride Form A (Type 1 Lot) were performed.
Variability in the drying profiles of different lots of Compound 1 Hydrochloride were noted, particularly with regards to the transition between Form A and Form C. The variable behavior appeared to depend upon the nature of the input Form A batch (e.g., how it was generated and then conditioned, if at all, prior to drying, and/or if excess hydrochloric acid was present).
Concentrated HCl (154 μL, 1 eqiuv) was added which clarified the suspension to a deep orange solution. The mixture was equilibrated for 30 minutes before cooling gradually to room temperature. A thin yellow suspension resulted. The solvent volume was reduced by 50% which thickened the suspension. The suspension was matured overnight, following which the solid was filtered to isolate the solids. The solid was air dried for ˜30 minutes giving a yellow solid (damp mass: 1.24 g; pH measured at 5.0). The XRPD pattern of the damp solid corresponded with Compound 1 Hydrochloride Form H. Analysis of the damp solid by DSC and TGA indicated a water content of 8.2%, which was fairly labile up ˜75° C.
Compound 1 Hydrochloride Form H was then subjected to a drying study under various conditions.
The solids were further subjected to prolonged drying.

[2] = Solid state stability under humid conditions (40° C./75% RH and 25° C./60% RH, two weeks)
Experimental: Stability of Compound 1 Hydrochloride Forms A, B, C, and D was evaluated under humid conditions. Samples of Forms A, B, C, and D were stored at 40° C./75% RH and 25° C./60% RH for a period of two weeks (loosely capped glass vials with approx. 200 mg solid). Solids were then re-analyzed using methods described herein. A summary of the results is provided in Table 12 (after storage at 25° C./60% RH) and Table 13 (after storage at 40° C./75% RH).

[3] = Solid state stability under desiccant conditions (two weeks)
Experimental: Stability of Compound 1 Hydrochloride Forms A and C was evaluated under desiccant conditions. Compound 1 Hydrochloride Form A (Type 1 Lot) and a mixture comprising Compound 1 Hydrochloride Form A (Type 2 Lot) and Form C were stored under desiccant conditions for a two week period. Solids were then re-analyzed using methods described herein.

[4] = pH-dependent solubility (NaOH titration, pH 3-8); conditions: 25° C.
Experimental: A titration and solubility determination of Compound 1 Hydrochloride Form A (Type 1 Lot) was performed using NaOH over a pH range of 3-8. A solution was produced at 25° C. with magnetic agitation by combining 100 mg Compound 1 Hydrochloride Form A (Type 1 Lot) into 5 mL deionized water to give a concentration of 20 mg/mL within a clean glass vessel. […] The solution was slowly basified using 1.0 N, 0.1 N, and 0.01 N NaOH (with the lower concentrations being used to finely adjust pH close to the end point target pH and avoid overshooting) to achieve pH values of 4, 5, 5.5, 6, 7, and 8. […] The concentration of the test solution was lowered at pH 6 from 20 mg/mL to 5 mg/mL with repeat testing at each concentration to illustrate salt impact. Each pH value was allowed to equilibrate to stability prior to solubility evaluation via HPLC assessment of the clarified liquors. Dilution by 100× or 50× into the working range was performed using deionized water.

[5] = Dry in vacuo at 25° C., T = 24 h
[6] = Dry in vacuo at 25° C., T = 96 h
[7] = Dry in vacuo at 25° C., T = 120 h
[8] = Dry in vacuo at 45° C., T = 24 h
[9] = Dry in vacuo at 45° C., T = 96 h
[10] = Dry in vacuo at 45° C., T = 120 h
[11] = Dry in vacuo at 70° C., T = 24 h
[12] = Dry in vacuo at 70° C., T = 96 h
[13] = Dry in vacuo at 70° C., T = 120 h

For `COC(=O)c1ccc2c(c1)NC(=O)/C2=C(\Nc1ccc(N(C)C(=O)CN2CCN(C)CC2)cc1)c1ccccc1.Cl` [Compound 1 Hydrochloride Form A (Type 1 Lot)], the “TGA (%)” value [1, 5] was 11.12%, the XRPD [1, 5] was “Form A” and the “TGA (%)” value [1, 6] was 10.14%. The XRPD [1, 6] was “Form A”, the “TGA (%)” value [1, 7] was 10.47% and the XRPD [1, 7] was “Form A”. For the same molecule, the “TGA (%)” value [1, 8] was 9.84%, the XRPD [1, 8] was “Form A” and the “TGA (%)” value [1, 9] was 8.71%. The XRPD [1, 9] was “Form A”, the “TGA (%)” value [1, 10] was 10.19% and the XRPD [1, 10] was “Form A”. For the same molecule, the “TGA (%)” value [1, 11] was 10.48%, the XRPD [1, 11] was “Form A” and the “TGA (%)” value [1, 12] was 8.19%. For the same molecule, the XRPD [1, 12] was “Form A”, the “TGA (%)” value [1, 13] was 10.85% and the XRPD [1, 13] was “Form A”. For the same molecule, the “TGA (%)” value ([1]; T = 0, before drying) was 9.673%, the “TGA After Storage: further loss above/post 200° C.” value ([2]; 25° C./60% RH) was 100° C., further loss of 0.96% and the “TGA After Storage: total water content” value ([2]; 25° C./60% RH) was “of 10.9%”. For the same molecule, the “XRPD After Storage” value ([2]; 25° C./60% RH) was “Form A”, the “TGA After Storage: further loss above/post 200° C.” value ([2]; 40° C./75% RH) was 100° C., further loss of 1.05% and the “TGA After Storage: total water content” value ([2]; 40° C./75% RH) was “of 11.18%”. The “TGA After Storage: weight reduction up to 100° C.” value ([2]; 40° C./75% RH) was “Weight reduction of 10.13% up to”, the “XRPD After Storage” value ([2]; 40° C./75% RH) was “Form A” and the “Appearance After Storage” value [3] was “Yellow powder”. For the same molecule, the TGA weight reduction [3] was “Weight reduction of 5.6%”, the XRPD [3] was “Form A” and the “initial pH reading of solution” value ([4]; 20 mg/mL in deionized water, stable over 10 minutes) was 3.03. The “Solubility” value ([4]; pH 3.03, starting concentration 20 mg/mL) was greater than 20000 µg/mL, the “Solubility” value ([4]; pH 4.0, starting concentration 20 mg/mL) was greater than 20000 µg/mL and the “Solubility” value ([4]; pH 5.0, starting concentration 20 mg/mL) was 16000 µg/mL. The “Solubility” value ([4]; pH 5.5, starting concentration 20 mg/mL) was 700 µg/mL, the “Solubility” value ([4]; pH 6.0, starting concentration 5 mg/mL) was 60 µg/mL and the “Solubility” value ([4]; pH 6.0, starting concentration 20 mg/mL) was 60 µg/mL. The “Solubility” value ([4]; pH 7.0, starting concentration 5 mg/mL) was 50 µg/mL and the “Solubility” value ([4]; pH 8.0, starting concentration 5 mg/mL) was 1 µg/mL.
